According to US11850243B2, “Dihydropyridine compositions and methods for treating neurological disorders” (Cavalon Therapeutics, Inc., priority 2021, dated 2023):

Columns and labels:
[1] = test system: Parkinson's disease; experiment: STEADY-PD III post-hoc analysis: isradipine exposure versus need for antiparkinson therapy and levodopa equivalent dose; type: in vivo, human
[2] = test system: dopaminergic neurons in the striatum and substantia nigra; conditions: 6-hydroxydopamine mouse model, cited from earlier work
[3] = test system: SNc DA neurons; conditions: chronic treatment in vivo, cited from earlier work
[4] = biological target: Cav1.3 (Homo sapiens, UniProt Q01668); conditions: in vitro; read-out: IC50 for inhibition of calcium currents through Cav1.3 (converted); cited from earlier work
Sequence of Cav1.3 (Q01668 whole entry): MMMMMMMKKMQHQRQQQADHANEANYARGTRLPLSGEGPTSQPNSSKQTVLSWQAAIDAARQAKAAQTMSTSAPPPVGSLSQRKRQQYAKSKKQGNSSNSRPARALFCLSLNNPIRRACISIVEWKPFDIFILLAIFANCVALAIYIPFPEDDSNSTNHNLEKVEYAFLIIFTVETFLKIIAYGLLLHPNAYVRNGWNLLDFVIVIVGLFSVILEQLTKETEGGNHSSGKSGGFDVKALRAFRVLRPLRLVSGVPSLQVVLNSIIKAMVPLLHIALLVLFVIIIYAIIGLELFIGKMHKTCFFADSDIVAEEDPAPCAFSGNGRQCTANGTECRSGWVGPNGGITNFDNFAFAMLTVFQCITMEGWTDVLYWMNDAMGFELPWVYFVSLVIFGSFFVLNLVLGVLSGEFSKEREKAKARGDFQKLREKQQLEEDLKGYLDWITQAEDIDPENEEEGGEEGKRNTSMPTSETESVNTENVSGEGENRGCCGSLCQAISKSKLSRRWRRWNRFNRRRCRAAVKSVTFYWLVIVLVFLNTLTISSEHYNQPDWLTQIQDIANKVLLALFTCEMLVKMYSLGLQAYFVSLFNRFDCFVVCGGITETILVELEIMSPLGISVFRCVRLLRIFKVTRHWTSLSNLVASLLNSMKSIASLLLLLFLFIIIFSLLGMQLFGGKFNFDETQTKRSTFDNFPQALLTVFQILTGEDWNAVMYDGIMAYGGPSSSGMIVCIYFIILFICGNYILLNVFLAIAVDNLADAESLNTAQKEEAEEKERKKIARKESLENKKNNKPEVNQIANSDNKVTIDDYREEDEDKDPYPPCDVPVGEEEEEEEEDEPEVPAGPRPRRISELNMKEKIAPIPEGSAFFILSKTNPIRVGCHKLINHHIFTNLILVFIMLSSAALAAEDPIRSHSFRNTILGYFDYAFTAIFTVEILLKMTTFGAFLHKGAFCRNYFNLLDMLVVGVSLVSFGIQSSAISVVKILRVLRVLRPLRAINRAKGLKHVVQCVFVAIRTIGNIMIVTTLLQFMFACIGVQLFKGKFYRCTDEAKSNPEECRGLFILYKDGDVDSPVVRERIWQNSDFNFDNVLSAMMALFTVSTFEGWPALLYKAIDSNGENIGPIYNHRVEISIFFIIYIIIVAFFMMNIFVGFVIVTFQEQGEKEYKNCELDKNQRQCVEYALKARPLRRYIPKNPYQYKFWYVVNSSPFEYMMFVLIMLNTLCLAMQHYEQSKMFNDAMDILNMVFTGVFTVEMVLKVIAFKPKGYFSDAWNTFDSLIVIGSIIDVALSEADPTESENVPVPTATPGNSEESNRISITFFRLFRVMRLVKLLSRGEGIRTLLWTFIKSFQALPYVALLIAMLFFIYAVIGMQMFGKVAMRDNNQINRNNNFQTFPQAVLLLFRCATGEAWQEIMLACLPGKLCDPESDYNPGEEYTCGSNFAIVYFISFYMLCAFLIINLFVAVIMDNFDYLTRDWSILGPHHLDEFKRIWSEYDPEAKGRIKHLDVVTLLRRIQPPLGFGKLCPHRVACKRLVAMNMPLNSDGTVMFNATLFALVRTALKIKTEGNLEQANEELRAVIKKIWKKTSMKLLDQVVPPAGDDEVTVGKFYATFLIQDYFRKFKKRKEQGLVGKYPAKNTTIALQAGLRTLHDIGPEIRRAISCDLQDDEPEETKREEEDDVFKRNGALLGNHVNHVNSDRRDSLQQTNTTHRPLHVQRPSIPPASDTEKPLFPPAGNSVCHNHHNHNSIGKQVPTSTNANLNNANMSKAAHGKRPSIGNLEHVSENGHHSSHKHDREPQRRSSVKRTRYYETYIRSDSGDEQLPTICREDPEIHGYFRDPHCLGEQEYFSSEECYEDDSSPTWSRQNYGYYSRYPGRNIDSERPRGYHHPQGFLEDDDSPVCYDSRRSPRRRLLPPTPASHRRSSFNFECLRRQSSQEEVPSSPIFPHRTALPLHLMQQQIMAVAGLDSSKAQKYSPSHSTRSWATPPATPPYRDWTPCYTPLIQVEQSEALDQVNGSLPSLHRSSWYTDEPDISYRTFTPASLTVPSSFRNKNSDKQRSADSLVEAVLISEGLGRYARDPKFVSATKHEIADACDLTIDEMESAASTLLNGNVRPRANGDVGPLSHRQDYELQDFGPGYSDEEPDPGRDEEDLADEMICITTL
Sequence of Cav1.3 (P54284 whole entry partner): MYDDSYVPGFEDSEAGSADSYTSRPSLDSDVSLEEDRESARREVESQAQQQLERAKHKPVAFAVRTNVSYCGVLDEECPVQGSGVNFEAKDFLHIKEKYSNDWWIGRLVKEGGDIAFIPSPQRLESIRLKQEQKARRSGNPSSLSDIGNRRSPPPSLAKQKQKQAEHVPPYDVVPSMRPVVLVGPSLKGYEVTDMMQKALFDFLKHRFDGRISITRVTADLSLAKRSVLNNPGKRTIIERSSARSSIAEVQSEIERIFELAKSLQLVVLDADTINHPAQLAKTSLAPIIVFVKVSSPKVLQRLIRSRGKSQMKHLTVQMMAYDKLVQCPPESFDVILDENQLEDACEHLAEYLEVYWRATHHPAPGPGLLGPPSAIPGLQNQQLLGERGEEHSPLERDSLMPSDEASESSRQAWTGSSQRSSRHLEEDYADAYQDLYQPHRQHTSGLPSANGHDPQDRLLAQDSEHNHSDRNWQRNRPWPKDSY
Sequence of Cav1.3 (P54289 25-946 partner limits assumed): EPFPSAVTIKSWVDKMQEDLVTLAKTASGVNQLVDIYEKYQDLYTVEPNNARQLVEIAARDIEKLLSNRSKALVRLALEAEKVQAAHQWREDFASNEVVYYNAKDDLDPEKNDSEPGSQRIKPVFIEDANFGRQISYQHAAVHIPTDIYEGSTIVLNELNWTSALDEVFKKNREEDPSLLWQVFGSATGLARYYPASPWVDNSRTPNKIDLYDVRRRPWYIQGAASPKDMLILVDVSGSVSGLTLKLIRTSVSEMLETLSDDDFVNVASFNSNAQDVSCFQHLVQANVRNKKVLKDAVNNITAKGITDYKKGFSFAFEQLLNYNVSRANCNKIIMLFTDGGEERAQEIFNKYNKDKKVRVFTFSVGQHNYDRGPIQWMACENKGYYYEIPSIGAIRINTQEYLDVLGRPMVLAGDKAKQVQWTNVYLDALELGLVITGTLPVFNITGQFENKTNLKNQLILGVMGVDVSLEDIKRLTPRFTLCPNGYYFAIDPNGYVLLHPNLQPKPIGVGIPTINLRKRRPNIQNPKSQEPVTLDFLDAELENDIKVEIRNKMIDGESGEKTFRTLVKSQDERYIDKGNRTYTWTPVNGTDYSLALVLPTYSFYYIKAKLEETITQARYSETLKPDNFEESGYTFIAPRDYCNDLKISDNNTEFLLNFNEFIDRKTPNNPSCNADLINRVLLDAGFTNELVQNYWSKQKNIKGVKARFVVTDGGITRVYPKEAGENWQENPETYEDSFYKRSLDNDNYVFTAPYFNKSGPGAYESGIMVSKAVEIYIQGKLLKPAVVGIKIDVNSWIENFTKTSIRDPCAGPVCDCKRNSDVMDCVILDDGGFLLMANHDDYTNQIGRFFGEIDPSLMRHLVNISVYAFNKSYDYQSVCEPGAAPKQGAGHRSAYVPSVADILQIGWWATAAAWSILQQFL
Sequence of Cav1.3 (P54289 947-1103 partner limits assumed): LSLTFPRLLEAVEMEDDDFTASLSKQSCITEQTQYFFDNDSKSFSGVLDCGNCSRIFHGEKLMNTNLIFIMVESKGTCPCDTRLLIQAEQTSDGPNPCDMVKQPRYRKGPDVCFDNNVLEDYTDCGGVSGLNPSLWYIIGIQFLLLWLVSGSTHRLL

[5] = population pharmacokinetic modeling of plasma isradipine in STEADY-PD III by tertile groups; conditions: IR 5 mg twice daily; for CL/F: steady state; for Cave,ss: based on AUC24
[6] = Middle CL/F, Middle AUC24 tertile

COC(=O)C1=C(C)NC(C)=C(C(=O)OC(C)C)C1c1cccc2nonc12 (centres unmarked) [isradipine]
HR for time to need therapy ([1]; highest AUC24 exposure group vs placebo, 95% CI 0.45-0.97): 0.66
decrease in risk of needing antiparkinson treatment ([1]; trend per CL/F tertile decrement or AUC24 tertile increment, vs placebo, p for trend=0.02): 13%
HR for time to first initiation of antiparkinson therapy ([1]; trend per tertile, vs placebo, 95% CI:0.78-0.98): 0.87
plasma concentration required to inhibit neuronal death by 50% (IC50) ([2]; systemic administration, plasma concentration): 5 to 7 ng/mL
protection of dopaminergic neurons in the striatum and substantia nigra ([2]; systemic administration): concentration-dependent protection
threshold plasma concentration for protection against neuronal death ([2]; inflection point in the concentration-response curve): 1.5 to 2 ng/mL
high basal rate of mitophagy ([3]; SNc DA neurons): diminished
mitochondrial oxidant stress ([3]; SNc DA neurons): significantly lowered
cytosolic [Ca2+] in SNc DA neurons [3]: sustained reduction
mitochondrial mass in SNc DA neurons [3]: increased
IC50 [4]: ~8.08 nM
Cmin,ss ([5]; Fast CL/F, Low AUC24 tertile): 0.56 ng/mL
CL/F ([5]; Fast CL/F, Low AUC24 tertile): 477 L/h
Cave,ss ([5]; Fast CL/F, Low AUC24 tertile): 0.9 ng/mL
Cmin,ss [5, 6]: 0.86 ng/mL
CL/F [5, 6]: 296 L/h
Cave,ss [5, 6]: 1.4 ng/mL
Cmin,ss ([5]; Slow CL/F, High AUC24 tertile): 1.40 ng/mL
CL/F ([5]; Slow CL/F, High AUC24 tertile): 195 L/h
Cave,ss ([5]; Slow CL/F, High AUC24 tertile): 2.1 ng/mL
